Assay results taken from patent publication US20210205253A1, “Use Of Stearic Acid For Preventing Or Treating Pulmonary Fibrosis” (THE ASAN FOUNDATION, priority 2018, published 2021).

Legend:
[1] = system: Beas-2B human pulmonary epithelial cell line; test: E-cadherin expression in epithelial cells; assay type: cell-based; settings: 40 μM stearic acid, 24 h
Protocol: The present inventors examined the expression level of E-cadherin after treating Beas-2B, which is a human pulmonary epithelial cell line, with TGF-β1 and/or 40 μM stearic acid for 24 hours in order to examine the effects of stearic acid on epithelial cells. As a result, as illustrated in FIGS. 11A and 11B, it was confirmed that when Beas-2B was treated with 40 μM stearic acid, the expression of E-cadherin reduced by TGF-β1 was restored in Beas-2B cells. […] It was confirmed in FIG. 3B that when epithelial cells are treated with TGF-β1, the proliferation of epithelial cells was inhibited and the proliferation of epithelial cells was restored by stearic acid.

[2] = system: human pulmonary epithelial cells (BEAS-2B); test: Cell viability (MTT) of human pulmonary epithelial cells; assay type: cell-based; settings: stearic acid 40 uM/mL + TGF-β 5 ng/mL, 24 h, versus TGF-β alone
Protocol: After epithelial cells and fibroblasts were aliquoted into 6-well plates at 2×10^4 cells/well and a stabilization time was imparted for 24 hours, and 15 hours after deficiency, cells were treated with stearic acid (40 uM/mL), TGF-β (5 ng/mL), and stearic acid (40 uM/mL)+TGF-β (5 ng/mL) in this order. After the cells were cultured in an incubator for 24 hours after the treatment, the next-step experiment was performed.
After a 24-hour cell stimulation by the method in Example 1-3 was completed, the medium of epithelial cells and fibroblasts was replaced with a general culture medium, 10 μl of an MTT solution (20 mg/ml) was further added, and then the outside of the plate was wrapped with aluminum foil and cells were cultured in an incubator for 2 hours. […] After 2 hours, cell activation was measured at an absorbance value of 595 nm using an ELISA reader.
For this purpose, after each culture (BEGM(Lonza) in the case of MRC-5, and BMEM (ATCC) in the case of BEAS-2B) of human pulmonary fibroblasts (MRC-5; ATCC® CCL171™) and human pulmonary epithelial cells (BEAS-2B; ATCC® CRL9609™) was treated with stearic acid (40 uM/mL), TGF-β (5 ng/mL; Sigma), or stearic acid (40 uM/mL)+TGF-β (5 ng/mL) by the method described in Example 1-3 for 24 hours, cell viability was measured by the method in Example 1-4. […]

[3] = system: primary fibroblasts isolated from lung tissues of patients with idiopathic pulmonary fibrosis; test: Collagen 1 and α-SMA expression in primary fibroblasts from IPF patients; assay type: cell-based, human; settings: 80 μM stearic acid
Protocol: In addition to the results in the Examples, the present inventors sought to verify the anti-fibrotic effect of stearic acid on fibroblasts derived from lung tissues in patients with idiopathic pulmonary fibrosis (IPF). For this purpose, after primary fibroblasts were isolated from lung tissues of the patients, and then the cells were treated with stearic acid at various concentrations for 24 hours, the expression levels of collagen 1 and α-SMA were measured (FIGS. 10A and 10B), fibroblasts obtained from 4 patients were treated with 80 μM stearic acid for 24 hours, and then the expression levels of collagen 1 and α-SMA were measured (FIG. 10C). In addition, after the expression of collagen type 1 and α-SMA was increased by inducing the fibrosis caused by TGF-β1 in patient-derived fibroblasts, the anti-fibrotic effect of stearic acid was verified (FIGS. 10D and 10E).

[4] = system: human primary fibroblasts; test: Combined treatment of stearic acid and pirfenidone in human primary fibroblasts (western blotting); assay type: cell-based; settings: TGF-β 5 ng/ml; 40 μM stearic acid single treatment (Lane 4)
Protocol: The primary fibroblasts derived from the patients with idiopathic pulmonary fibrosis used in the following experiment were cultured for 7 to 10 days while cutting the lung tissue of the patient into 1×1 mm^2 slices, and then periodically exchanging a cell culture solution (Eagle's minimal essential medium; EMEM) supplemented with 100 unit/ml penicillin, 100 μg/ml streptomycin, and 10% fetal bovine serum (FBS) under conditions of 5% CO2 and 37° C., and cells of passage 2 to 5 were used for the experiment.
To verify the anti-fibrotic effect by the combined treatment of stearic acid and pirfenidone, which is a therapeutic agent for idiopathic pulmonary fibrosis, the human primary fibroblasts isolated by the above-described method were respectively or simultaneously treated with 5 ng/ml TGF-β, 40 μM stearic acid, and 400 or 800 μM pirfenidone for 24 hours, and then the expression levels of collagen type 1 (COL-1) and α-SMA, which are markers of fibrosis, were measured by western blotting, and the inhibitory rate was quantitatively analyzed by correcting the amount of each protein with the amount of actin, which is an intracellular control protein.

[5] = primary fibroblasts from 4 patients with IPF, 24 h (FIG. 10C)

CCCCCCCCCCCCCCCCCC(=O)O [stearic acid]
expression of E-cadherin reduced by TGF-β1 [1]: restored
cell viability of pulmonary epithelial cells [2]: cell viability increased
basal level expression of collagen 1 ([3]; 24 h (FIGS. 10A, 10B)): significantly reduced
basal level expression of α-SMA ([3]; 24 h (FIGS. 10A, 10B)): significantly reduced
expression of collagen 1 ([3]; fibrosis induced by TGF-β1): significantly reduced
expression of α-SMA ([3]; fibrosis induced by TGF-β1): significantly reduced
basal level expression of collagen 1 [3, 5]: significantly reduced
basal level expression of α-SMA [3, 5]: significantly reduced
change in COL-1 [4]: insignificant
α-SMA [4]: reduced
